Reference: US9512167B2, “Optimized synthesis of pure, non-polymorphic, crystalline bile acids with defined particle size” (Dr. Falk Pharma GmbH, priority 2010, dated 2016)
Values after ≈ are worked out from the molar mass of the structure shown. Each block holds one compound with its values, some of them ahead of it.

What was measured:
Type in all cases: physicochemical
[1] = Particle size determination by laser diffraction; details: dry method, Malvern
Source text: The particle size distribution can be determined as described herein in Example 3 and/or according the European Pharmacopeia (Ph. Eur.), edition 6.8. section 2.9.31, preferably with a Mastersizer 2000 by Malvern instruments. The evaluation is typically carried out by the Fraunhofer model.
The precipitation of the free acid leads to Nor-UDCA particles of a consistent and defined size distribution. Micronization by milling in order to control the crystal size of Nor-UDCA can be avoided.

[2] = Polymorph screen: relative stability of forms by XRPD re-analysis after storage; details: for Stability by XRPD (form found on XRPD re-analysis after storage): storage at ambient conditions
Method: (§1) The polymorph screening study was carried out in two phases. In Phase 1, the synthesized Nor-UDCA, designated Form A, was characterised by XRPD, digital imaging, thermal analysis (DSC and TGMS). The purity of the material was checked by HPLC/RI. A qualitative solubility determination with 20 solvents was carried out in order to fit the data for the selection of the crystallization solvents to be employed in the polymorph screen. Additionally, the solids recovered by evaporation of solutions used in the solubility experiments were analyzed by XRPD and digital imaging to obtain information on the potential form formation of new forms of Nor-UDCA (see Table 2). Grinding tests were conducted in order to support the definition of the experimental space for this crystallization mode. Amorphous material to be used as starting material was intentionally produced by freeze-drying from 1,4-dioxane/water (95/5%) solution and by grinding (ball-milling) for “cooling/evaporation and vapour diffusion into solids experiments”. In Phase 2, 217 experiments divided across different crystallization modes were performed. The applied crystallization modes were: • Combined cooling/evaporative crystallization experiments starting with amorphous material • Crystallization with forward anti-solvent addition • Slurry experiments at two temperatures • Vapour diffusion into solutions • Vapour diffusion onto amorphous solids • Crystallization by grinding with 24 solvents and one dry.
Upon completion of the experiments, XRPD and digital images analyses were performed on all crystallized solids.

[3] = Qualitative solubility determination of Nor-UDCA with 20 solvents; details: thermodynamic from solid
Method: as §1

[4] = Particle size analysis of crystals by microscopy (Reference Example)
Method: Various properties of Nor-UDCA synthesized according to Schteingart and Hofmann (1988) Journal of Lipid Research Vol. 29(10), […] were investigated.
The particle size of the crystals obtained was analyzed by microscopy. […] This particle size distribution is not suitable for the intended pharmaceutical preparation. Milling/micronization is not desired as this would result in a reduction of the polymorphic purity and/or of the thermodynamic stability of the Nor-UDCA.

Particle size D(v, 0.5) ([1]; listed as Batch 40019721): 6.4 μm
Particle size D(v, 0.5) ([1]; listed as Batch 40019898): 5.4 μm
Particle size D(v, 0.5) ([1]; listed as Batch 40019902): 6.7 μm
Thermodynamic stability of the crystalline form ([2]; polymorph screening study): thermodynamically stable
Stability by XRPD (form found on XRPD re-analysis after storage) [2]: Form A
solubility ([3]; dichloromethane, organic solvent or mixture, solvent Dichlormethane): < 13 mg/mL
solubility ([3]; organic solvent or mixture, solvent 1,2-Dimethoxyethane): < 14 mg/mL
solubility ([3]; organic solvent or mixture, solvent 1,2-Ethanediol): < 14 mg/mL
solubility ([3]; organic solvent or mixture, solvent 1,4-Dioxane): 21 mg/mL (≈ 55.5 mM)
solubility ([3]; organic solvent or mixture, solvent 2,2,2-Trifluoroethanol): 21 mg/mL (≈ 55.5 mM)
solubility ([3]; organic solvent or mixture, solvent 2-Butanone): < 14 mg/mL
solubility ([3]; organic solvent or mixture, solvent Acetone): < 14 mg/mL
solubility ([3]; organic solvent or mixture, solvent Acetonitrile): < 13 mg/mL
solubility ([3]; organic solvent or mixture, solvent Chloroform): < 14 mg/mL
solubility ([3]; organic solvent or mixture, solvent Cyclohexane): < 14 mg/mL
solubility ([3]; organic solvent or mixture, solvent Dimethylsulfoxide): 207 mg/mL (≈ 547 mM)
solubility ([3]; organic solvent or mixture, solvent Methanol): 70 mg/mL (≈ 185 mM)
solubility ([3]; organic solvent or mixture, solvent N-Methyl-2-pyrrolidone): 404 mg/mL (≈ 1070 mM)
solubility ([3]; organic solvent or mixture, solvent Nitrobenzene): < 13 mg/mL
solubility ([3]; organic solvent or mixture, solvent Nitromethane): < 13 mg/mL
solubility ([3]; organic solvent or mixture, solvent Pentane): < 13 mg/mL
solubility ([3]; organic solvent or mixture, solvent Toluene): < 12 mg/mL
solubility ([3]; tert-butyl methyl ether, organic solvent or mixture, solvent Tert-butylmethylether): < 13 mg/mL
solubility ([3]; tetrahydrofuran, organic solvent or mixture, solvent Tetrhydrofurane): 41 mg/mL (≈ 108 mM)
solubility ([3]; solvent Water): < 12 mg/mL
SMILES: CC(CC(=O)O)[C@H]1CCC2[C@H]3C(CC[C@@]21C)[C@@]1(C)CCC(O)C[C@H]1C[C@@H]3O (stereo partly drawn) [Nor-UDCA, 3α,7β-dihydroxy-24-nor-5β-cholan-23oic acid]

SMILES: C[C@H](CC(=O)O)[C@H]1CC[C@H]2[C@@H]3[C@@H](O)C[C@@H]4C[C@H](O)CC[C@]4(C)[C@H]3CC[C@]12C [Form B]
Time to conversion to Form A (XRPD re-analysis) ([2]; stored at ambient conditions in well and experimental vial): ≤ 10 days

SMILES: C[C@H](CC(=O)O)[C@H]1CC[C@H]2[C@@H]3[C@@H](O)C[C@@H]4C[C@H](O)CC[C@]4(C)[C@H]3CC[C@]12C
Median particle size (50% of the crystals this size or less) [4]: 13.37 μm
Particle size that 60% of the crystals have or less [4]: 15.64 μm
Particle size that 95% of the particles have or less [4]: 46.64 μm
Share of particles with a particle size of 10 μm or less [4]: Less than 30%

SMILES: C[C@H](CC(=O)O)[C@H]1CC[C@H]2[C@@H]3[C@@H](O)C[C@@H]4C[C@H](O)CC[C@]4(C)[C@H]3CC[C@]12C [Form C2]
Stability by XRPD (form found on XRPD re-analysis after storage) [2]: Form A
